Laboratory results taken from ChEMBL document CHEMBL2331177, “Pleurospiroketals A-E, perhydrobenzannulated 5,5-spiroketal sesquiterpenes from the edible mushroom Pleurotus cornucopiae” (J Nat Prod, 2013).

What was measured:
RAW264.7 [1] = test: Cytotoxicity against mouse RAW264.7 cells at 100 uM; assay type: cell-based; conditions: raw264.7, 100 µM
RAW264.7 [2] = test: Inhibition of LPS-induced nitric oxide production in mouse RAW264.7 cells treated 1 hr before LPS challenge measured after 24 hrs by Griess reaction method; assay type: functional, cell-based
HeLa = test: Cytotoxicity against human HeLa cells after 72 hrs by MTT assay; assay type: functional, cell-based

Structure (SMILES)	Activity (RAW264.7 [1])	IC50 (RAW264.7 [2])	IC50 (HeLa)
C=C1[C@H]2CC[C@](C)(O)[C@H](O)[C@H]2O[C@@]12OC(C)(C)CC2=O [PLEUROSPIROKETAL A]	Non-toxic	6.8 µM	20.6 µM
C=C1[C@H]2CC[C@](C)(O)[C@H](O)[C@H]2O[C@]12OC(C)(C)CC2=O [PLEUROSPIROKETAL B]	Non-toxic	12.6 µM	32.8 µM
C[C@]12CCC(=O)C=C1CC[C@@H]1[C@@H]2[C@@H](O)C[C@@]2(C)[C@H]1CC[C@]2(O)C(=O)CO [HYDROCORTISONE]	–	53.8 µM	–
CC(=O)OCC1=C2CC[C@](C)(O)[C@H](O)[C@H]2O[C@@]12OC(C)(C)CC2=O [PLEUROSPIROKETAL C]	Non-toxic	20.8 µM	18.8 µM
